For assay [1], the target named is T1, Lysophosphatidylserine lipase ABHD12 (Homo sapiens) (UniProt Q8N2K0).
T1 sequence (whole entry): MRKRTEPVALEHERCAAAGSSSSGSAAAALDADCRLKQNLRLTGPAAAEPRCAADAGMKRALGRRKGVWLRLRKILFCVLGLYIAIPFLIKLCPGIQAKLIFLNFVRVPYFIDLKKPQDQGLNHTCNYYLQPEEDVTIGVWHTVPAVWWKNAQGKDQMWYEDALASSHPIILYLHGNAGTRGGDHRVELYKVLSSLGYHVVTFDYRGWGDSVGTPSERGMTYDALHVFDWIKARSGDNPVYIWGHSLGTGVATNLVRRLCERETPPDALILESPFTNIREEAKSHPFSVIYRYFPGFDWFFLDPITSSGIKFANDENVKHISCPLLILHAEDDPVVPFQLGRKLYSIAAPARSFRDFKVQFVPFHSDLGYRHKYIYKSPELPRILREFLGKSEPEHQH
As to the kind of experiment: Inhibition of human ABHD12 overexpressed in HEK293 cells assessed as 2-AG hydrolysis at 1 uM by fluorescent glycerol assay. Type of assay: cell-based.

In assay [2] the target is T2, Monoacylglycerol lipase ABHD6 (Homo sapiens) (UniProt Q9BV23).
T2 sequence (whole entry): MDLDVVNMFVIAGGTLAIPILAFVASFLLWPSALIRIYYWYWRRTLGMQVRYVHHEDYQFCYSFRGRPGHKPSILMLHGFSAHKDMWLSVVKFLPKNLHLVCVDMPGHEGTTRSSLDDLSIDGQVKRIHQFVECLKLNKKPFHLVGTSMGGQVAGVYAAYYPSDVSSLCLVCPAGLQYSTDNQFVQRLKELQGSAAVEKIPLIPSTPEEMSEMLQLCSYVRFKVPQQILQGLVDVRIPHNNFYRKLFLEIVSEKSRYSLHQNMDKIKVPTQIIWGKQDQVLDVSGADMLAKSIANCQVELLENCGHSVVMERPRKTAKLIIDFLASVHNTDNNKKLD
As to the kind of experiment: Inhibition of human ABHD6 overexpressed in HEK293 cells assessed as 2-AG hydrolysis at 1 uM by fluorescent glycerol assay. Type of assay: cell-based.

Assay [3] addresses T3, Fatty-acid amide hydrolase 1 (Homo sapiens, UniProt O00519).
T3 sequence (O00519 whole entry): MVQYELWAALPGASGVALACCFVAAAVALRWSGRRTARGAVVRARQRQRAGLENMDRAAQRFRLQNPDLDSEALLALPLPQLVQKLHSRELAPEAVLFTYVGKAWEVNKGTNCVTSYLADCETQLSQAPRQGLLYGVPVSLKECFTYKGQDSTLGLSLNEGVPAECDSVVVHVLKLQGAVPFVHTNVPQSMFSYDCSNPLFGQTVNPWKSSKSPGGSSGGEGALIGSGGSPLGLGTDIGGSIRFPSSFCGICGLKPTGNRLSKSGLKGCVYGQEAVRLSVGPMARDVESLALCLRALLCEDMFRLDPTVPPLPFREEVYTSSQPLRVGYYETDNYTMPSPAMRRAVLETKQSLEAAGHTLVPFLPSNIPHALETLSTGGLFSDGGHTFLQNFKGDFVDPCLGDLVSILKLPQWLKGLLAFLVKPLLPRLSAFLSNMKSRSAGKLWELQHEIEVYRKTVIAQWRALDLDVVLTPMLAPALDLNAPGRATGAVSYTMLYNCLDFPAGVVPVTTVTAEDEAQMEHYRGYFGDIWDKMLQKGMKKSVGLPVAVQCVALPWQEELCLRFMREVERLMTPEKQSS
As to the kind of experiment: Inhibition of human recombinant FAAH overexpressed in African green monkey COS7 cells using [3H]-anandamide as substrate preincubated for 10 mins before substrate addition measured after 10 mins by liquid scintillation counting analysis. In kind it is cell-based, COS-7.

The target in assay [4] is T4, Monoglyceride lipase (Homo sapiens, UniProt Q99685).
T4 sequence (Q99685 whole entry): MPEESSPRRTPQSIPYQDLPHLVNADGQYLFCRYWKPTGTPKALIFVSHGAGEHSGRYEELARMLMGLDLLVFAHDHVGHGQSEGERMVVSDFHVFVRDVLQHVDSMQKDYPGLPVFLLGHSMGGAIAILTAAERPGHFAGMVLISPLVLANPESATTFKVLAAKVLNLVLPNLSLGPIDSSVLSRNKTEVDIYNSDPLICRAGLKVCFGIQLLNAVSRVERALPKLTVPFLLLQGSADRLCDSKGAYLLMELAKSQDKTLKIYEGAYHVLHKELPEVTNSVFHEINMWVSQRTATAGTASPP
As to the kind of experiment: Inhibition of human recombinant MAGL overexpressed in HEK cells using 2-AG as substrate preincubated for 10 mins before substrate addition measured after 10 mins by HPLC analysis. In kind it is cell-based, HEK293.

Assay [5] addresses T5, Monoglyceride lipase (Homo sapiens) (UniProt Q99685).
T5 sequence (whole entry): T4 sequence (Q99685 whole entry)
As to the kind of experiment: Inhibition of human recombinant MAGL overexpressed in HEK cells using 2-AG as substrate at 10 uM preincubated for 10 mins before substrate addition measured after 10 mins by HPLC analysis relative to control. Type of assay: cell-based. The settings on record: HEK293.

Assay [6] deals with T6, Fatty-acid amide hydrolase 1 (Homo sapiens) (UniProt O00519).
T6 sequence (whole entry): T3 sequence (O00519 whole entry)
As to the kind of experiment: Inhibition of human recombinant FAAH overexpressed in African green monkey COS7 cells using [3H]-anandamide as substrate at 10 uM preincubated for 10 mins before substrate addition measured after 10 mins by liquid scintillation counting analysis relative to control. Type of assay: cell-based. As to conditions: COS-7.

The target of assay [7] is T6, Fatty-acid amide hydrolase 1 (Homo sapiens). As to the kind of experiment: Inhibition of human recombinant FAAH overexpressed in African green monkey COS7 cells using [3H]-anandamide as substrate at 10 to 100 uM preincubated for 10 to 60 mins by liquid scintillation counting analysis. In kind it is cell-based. As to conditions: COS-7.
Assay [8] shares this target. As to the kind of experiment: Inhibition of human recombinant FAAH overexpressed in African green monkey COS7 cells using [3H]-anandamide as substrate at 10 to 300 uM preincubated for 10 to 60 mins by liquid scintillation counting analysis. As to conditions: COS-7. In kind it is cell-based.
Assay [9] shares this target. As to the kind of experiment: Noncompetitive inhibition of human recombinant FAAH overexpressed in African green monkey COS7 cells using anandamide as substrate assessed as decrease in Vmax of substrate hydrolysis preincubated for 10 mins before substrate addition measured after 10 mins by HPLC analysis. As to conditions: COS-7.
Assay [10] has the same target. As to the kind of experiment: Inhibition of human recombinant FAAH overexpressed in African green monkey COS7 cells using [3H]-anandamide as substrate at 3 to 30 uM preincubated for 10 to 60 mins by liquid scintillation counting analysis. Type of assay: cell-based. As to conditions: COS-7.
Assay [11] shares this target. As to the kind of experiment: Reversible inhibition of human recombinant FAAH overexpressed in African green monkey COS7 cells using […] as substrate assessed as recovery of enzyme activity at 20 x IC50 preincubated for 60 mins followed by 500 fold dilution measured after 10 mins by HPLC analysis. In kind it is cell-based. As to conditions: COS-7.

Activity calls are given as the source filed them. No cut-off for these calls is given here.

Take `COc1nn(Cc2ccc(N(c3ccccc3)c3ccccc3)cc2)c(=O)o1`: the inhibition result in [1] and in [2] was “inactive” throughout. The IC50 in assay [3] (read-out: IC50) is 470 nM; in [3] (read-out: pIC50 (converted)) it was 457 nM; in assay [4] (read-out: IC50), 260 nM.

Turning to `COc1nn(C(C)C)c(=O)o1`, the inhibition result in [1] and in [2] was “inactive” throughout. Further, the inhibition (commonly the relative decrease from the control value, in per cent) in assay [5] amounted to 6%; in assay [6] it was 12%.

For the molecule `COc1nn([C@@H](C)c2ccc(N(c3ccccc3)c3ccccc3)cc2)c(=O)o1`, the inhibition entry in assay [1] and in assay [2] was “inactive” each time. Moreover, the inhibition entry in assay [7], in assay [8], in assay [10] and in [11] was “Active” throughout. The values for the IC50 in [3] (read-out: IC50) and in assay [3] (read-out: pIC50 (converted)) were 98 nM and 100 nM, respectively. Also, the inhibition in [5] was 41%; in [9], “Dose-dependent effect”.

For `COc1nn(C(C)c2ccc(-c3ccccc3)cc2)c(=O)o1` (racemic), the inhibition entry in assay [1] and in assay [2] was “inactive” each time. Moreover, the values for the IC50 in assay [3] (read-out: IC50) and in [3] (read-out: pIC50 (converted)) were 48 nM and 46.8 nM, respectively. Besides, the inhibition in [5] turned out to be 34%.

Consider `COc1nn(Cc2cccc(Oc3ccccc3)c2)c(=O)o1`, for which the inhibition entry in assay [1] and in assay [2] was “inactive” each time. The IC50 is 980 nM in [3] (read-out: IC50) and 977 nM in assay [3] (read-out: pIC50 (converted)). For the same molecule, the inhibition in assay [5] worked out at 15%.

With `COc1nn(Cc2cccc(-c3ccccc3)c2)c(=O)o1`, the inhibition entry in [1] and in assay [2] was “inactive” each time. In addition, the values for the inhibition in assay [5] and in [6] were 32% and 46%, respectively.

As to `COc1nn(C(C)c2ccccc2)c(=O)o1` (stereo unspecified), the inhibition result in assay [1], in [2] and in [5] was “inactive” throughout. The values for the IC50 in assay [3] (read-out: IC50) and in assay [3] (read-out: pIC50 (converted)) were 6000 nM and 6030 nM, respectively.

Regarding `COc1nn(C2CCCCC2)c(=O)o1`, the inhibition entry in assay [1], in [2] and in [5] was “inactive” each time. Besides, the inhibition in assay [6] was 40%.

In the case of `COc1nn(C(c2ccccc2)c2ccccc2)c(=O)o1`, the inhibition result in [1], in assay [2], in assay [5] and in assay [6] was “inactive” each time.

Take `COc1nn(C(C)c2cccc(-c3ccccc3)c2)c(=O)o1` (stereo unspecified): the inhibition result in assay [1] and in assay [2] was “inactive” in each case. The IC50 in assay [3] (read-out: IC50) is 1200 nM; in assay [3] (read-out: pIC50 (converted)), 1170 nM. Also, the inhibition in assay [5] stood at 42%.

As for `COc1nn(Cc2ccccc2)c(=O)o1`, the inhibition entry in assay [1], in assay [2], in assay [5] and in [6] was “inactive” each time.

As to `COc1nn(Cc2ccc(CC(C)C)cc2)c(=O)o1`, the inhibition result in assay [1] and in [2] was “inactive” each time. The figures for the IC50 in [3] (read-out: IC50), in assay [3] (read-out: pIC50 (converted)) and in [4] (read-out: IC50) were 91 nM, 89.1 nM and 1300 nM, respectively.

For `COc1nn(Cc2ccccc2Oc2ccccc2)c(=O)o1`, the inhibition result in assay [1], in assay [2] and in [5] was “inactive” each time. For the same molecule, the IC50 in [3] (read-out: IC50) is 6300 nM; in assay [3] (read-out: pIC50 (converted)), 6310 nM.

Take `COc1nn([C@H](C)c2ccc(N(c3ccccc3)c3ccccc3)cc2)c(=O)o1`: the inhibition entry in [1] and in [2] was “inactive” throughout. Further, the IC50 in assay [3] (read-out: IC50) is 6300 nM; in assay [3] (read-out: pIC50 (converted)) it was 6170 nM; in assay [4] (read-out: IC50), 350 nM; in assay [4] (read-out: pIC50 (converted)) it was 339 nM.

For the molecule `COc1nn(C(C)c2cccc(Oc3ccccc3)c2)c(=O)o1` (stereo unspecified), the inhibition result in assay [1] and in assay [2] was “inactive” each time. Also, the values for the IC50 in [3] (read-out: IC50) and in assay [3] (read-out: pIC50 (converted)) were 5200 nM and 5250 nM, respectively. For the same molecule, in [5], the inhibition came to 14%.

On to `COc1nn(C(C)c2ccc(Oc3ccccc3)cc2)c(=O)o1` (stereo unspecified), for which the inhibition result in assay [1] and in assay [2] was “inactive” throughout. Besides, the IC50 in [3] (read-out: IC50) is 34 nM; in assay [3] (read-out: pIC50 (converted)), 33.9 nM; in [4] (read-out: IC50), 2000 nM.

As to `COc1nn(Cc2ccc(Oc3ccccc3)cc2)c(=O)o1`, the inhibition entry in [1] and in assay [2] was “inactive” in each case. The IC50 in assay [3] (cos-7, read-out: IC50) is 100 nM; in assay [3] (read-out: pIC50 (converted)), 100 nM; in assay [4] (read-out: IC50), 400 nM.

Regarding `COc1nn(C(C)c2ccc(CC(C)C)cc2)c(=O)o1` (racemic), the inhibition entry in assay [1] and in assay [2] was “inactive” throughout. Also, the IC50 is 23 nM in assay [3] (read-out: IC50) and 22.9 nM in assay [3] (read-out: pIC50 (converted)). The inhibition in assay [5] stood at 48%.

As for `COc1nn(Cc2ccc(-c3ccccc3)cc2)c(=O)o1`, the inhibition result in assay [1] and in [2] was “inactive” in each case. The IC50 in assay [3] (read-out: IC50) was 160 nM; in assay [3] (read-out: pIC50 (converted)) it was 162 nM; in [4] (read-out: IC50), 1600 nM.

Take `COc1nn([C@H](C)c2ccc(-c3ccccc3)cc2)c(=O)o1`: the inhibition entry in assay [1] and in assay [2] was “inactive” throughout. Further, the IC50 in assay [3] (read-out: IC50) is 3000 nM; in assay [3] (read-out: pIC50 (converted)), 2880 nM. In assay [5], the inhibition came out at 49%.

For the origin of these results see ChEMBL document CHEMBL3085700 (J Med Chem, 2013).
